Measurements taken from ChEMBL document CHEMBL1201862, “PubChem BioAssay data set” (2004).
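Following 48 hours of exposure in 96-well plates, responses at five concentrations were used to interpolate endpoints linearly. Here, GI50 denotes the concentration required for 50% inhibition of growth.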 Active and inactive are the calls of the source. Rule as the data show it: active = GI50 up to about 1.1 µM and inactive = higher.

Experiments:
Test in all cases: DTP human tumour cell line panel, 48 h
SK-MEL-5 = test system: SK-MEL-5
OVCAR-5 = test system: OVCAR-5
HCT-116 = test system: HCT-116
SK-MEL-28 = test system: SK-MEL-28
NCI/ADR-RES = test system: NCI/ADR-RES
HCT-15 = test system: HCT-15
M14 = test system: M14
Malme-3M = test system: Malme-3M
RPMI-8226 = test system: RPMI-8226
Hs-578T = test system: Hs-578T
786-0 = test system: 786-0
MDA-MB-231 = test system: MDA-MB-231
T47D = test system: T47D
NCI-H460 = test system: NCI-H460
SNB-19 = test system: SNB-19
NCI-H522 = test system: NCI-H522
DU-145 = test system: DU-145
K562 = test system: K562
SF-539 = test system: SF-539
COLO 205 = test system: COLO 205

Row | SMILES | GI50 (SK-MEL-5) | GI50 (OVCAR-5) | GI50 (HCT-116) | GI50 (SK-MEL-28) | GI50 (NCI/ADR-RES) | GI50 (HCT-15) [µM] | GI50 (M14) | GI50 (Malme-3M) | GI50 (RPMI-8226) | GI50 (Hs-578T) | GI50 (786-0) | GI50 (MDA-MB-231) | GI50 (T47D) | GI50 (NCI-H460) | GI50 (SNB-19) | GI50 (NCI-H522) | GI50 (DU-145) | GI50 (K562) | GI50 (SF-539) | GI50 (COLO 205)
1 | COC(=O)NC1C(C)OC(OC2C/C=C(/C)C3C=CC4C(OC5CC(OC6CC(O)C(OC7CC(O)C(OC)C(C)O7)C(C)O6)C(O)C(C)O5)C(C)CC(C)C4C3(C)C(=O)C3=C(O)C4(CC(C)C(CO)=CC4/C=C\2C)OC3=O)CC1(C)[N+](=O)[O-] (stereo not given) | 15.6 µM (inactive) | 17.9 µM (inactive) | 5.36 µM (inactive) | 11.2 µM (inactive) | 69.5 µM (inactive) | 18 | 9.29 µM (inactive) | 7.93 µM (inactive) | 3.13 µM (inactive) | 10.9 µM (inactive) | 9.93 µM (inactive) | 12.6 µM (inactive) | 11.5 µM (inactive) | 12.3 µM (inactive) | 19.1 µM (inactive) | 5.69 µM (inactive) | 11.6 µM (inactive) | 4.41 µM (inactive) | 16.9 µM (inactive) | 5.16 µM (inactive)
2 | COC(=O)c1nc2n(n1)-c1ccccc1C(=O)N(Cc1ccccc1)C2 | > 100 µM (inactive) | > 100 µM (inactive) | > 100 µM (inactive) | > 100 µM (inactive) | > 100 µM (inactive) | > 100 | > 100 µM (inactive) | > 100 µM (inactive) | > 100 µM (inactive) | > 100 µM (inactive) | > 100 µM (inactive) | > 100 µM (inactive) | > 100 µM (inactive) | > 100 µM (inactive) | > 100 µM (inactive) | > 100 µM (inactive) | > 100 µM (inactive) | > 100 µM (inactive) | > 100 µM (inactive) | > 100 µM (inactive)
3 | CC1(C)[C@H]2Cc3cc4nc5ccccn5c4cc3[C@@H]1C2 | 17.6 µM (inactive) | 13.9 µM (inactive) | 17.5 µM (inactive) | 16 µM (inactive) | 18.2 µM (inactive) | 19.2 | 19.8 µM (inactive) | 12.4 µM (inactive) | 14.5 µM (inactive) | 15.6 µM (inactive) | 17.2 µM (inactive) | 13 µM (inactive) | 20.7 µM (inactive) | 18.4 µM (inactive) | 16 µM (inactive) | 4.58 µM (inactive) | 20.8 µM (inactive) | 19.8 µM (inactive) | 16.4 µM (inactive) | 18.4 µM (inactive)
4 | O=C/C(=C(/Br)I)c1ccccc1 | 7.06 µM (inactive) | 9.86 µM (inactive) | 1.51 µM (inactive) | 1.63 µM (inactive) | 3.95 µM (inactive) | 2.24 | 1.8 µM (inactive) | 1.92 µM (inactive) | 2.25 µM (inactive) | 9.59 µM (inactive) | 2.54 µM (inactive) | 2.56 µM (inactive) | 1.86 µM (inactive) | 8.99 µM (inactive) | 13.6 µM (inactive) | 1.78 µM (inactive) | 15.7 µM (inactive) | 0.624 µM (active) | 2.53 µM (inactive) | 3.91 µM (inactive)
5 | CCN(CCO)CC1CCCC2CCCCC21 (stereo not given) | > 100 µM (inactive) | > 100 µM (inactive) | > 100 µM (inactive) | > 100 µM (inactive) | > 100 µM (inactive) | > 100 | > 100 µM (inactive) | > 100 µM (inactive) | > 100 µM (inactive) | > 100 µM (inactive) | > 100 µM (inactive) | > 100 µM (inactive) | > 100 µM (inactive) | > 100 µM (inactive) | > 100 µM (inactive) | > 100 µM (inactive) | > 100 µM (inactive) | 46.5 µM (inactive) | > 100 µM (inactive) | > 100 µM (inactive)
6 | O=C(CC1(O)C(=O)Nc2c(Cl)cc(Cl)cc21)c1cccc([N+](=O)[O-])c1 (stereo not given) | 17.2 µM (inactive) | 55.7 µM (inactive) | 19.8 µM (inactive) | 32.9 µM (inactive) | 29 µM (inactive) | 48.5 | 22.8 µM (inactive) | 19.4 µM (inactive) | 28.2 µM (inactive) | 30.6 µM (inactive) | 22.2 µM (inactive) | 29.9 µM (inactive) | 63.5 µM (inactive) | 39.9 µM (inactive) | > 73.1 µM (inactive) | 67 µM (inactive) | > 100 µM (inactive) | 19.8 µM (inactive) | 27.9 µM (inactive) | 33.3 µM (inactive)
7 | CC1=CCC([C@@](C)(O)CCCC(C)(C)N=C=S)CC1 (stereo not given in full) | 15.4 µM (inactive) | 19.4 µM (inactive) | 13.7 µM (inactive) | 16.6 µM (inactive) | 19.6 µM (inactive) | 18.5 | 17.1 µM (inactive) | 14.8 µM (inactive) | 25.7 µM (inactive) | 26.5 µM (inactive) | 17.7 µM (inactive) | 19.1 µM (inactive) | 21 µM (inactive) | 16.5 µM (inactive) | 17.3 µM (inactive) | 17.3 µM (inactive) | 16.4 µM (inactive) | 19.3 µM (inactive) | 19.2 µM (inactive) | 16.1 µM (inactive)
8 | CC(=NNC(=S)Nc1ccc(C)cc1)c1cccc(C(C)=NNC(=S)Nc2ccc(C)cc2)n1 | 6.44 µM (inactive) | 60.5 µM (inactive) | 7.33 µM (inactive) | > 100 µM (inactive) | 5 µM (inactive) | 6.82 | 8.89 µM (inactive) | 2.06 µM (inactive) | 19.2 µM (inactive) | 41.1 µM (inactive) | 5.9 µM (inactive) | 24.2 µM (inactive) | 29.6 µM (inactive) | 6.47 µM (inactive) | 36.3 µM (inactive) | 22.3 µM (inactive) | > 100 µM (inactive) | 12.2 µM (inactive) | 7.01 µM (inactive) | 3.83 µM (inactive)
9 | CC(C)=CCNc1ncnc2[nH]cnc12 | 87.7 µM (inactive) | > 100 µM (inactive) | > 100 µM (inactive) | > 100 µM (inactive) | > 100 µM (inactive) | > 100 | > 100 µM (inactive) | > 100 µM (inactive) | > 100 µM (inactive) | > 100 µM (inactive) | > 100 µM (inactive) | > 100 µM (inactive) | > 100 µM (inactive) | > 100 µM (inactive) | > 100 µM (inactive) | > 100 µM (inactive) | > 100 µM (inactive) | > 100 µM (inactive) | > 100 µM (inactive) | > 100 µM (inactive)
10 | O=C1C(Br)=Cc2c(Cl)sc(Cl)c21 | 19.5 µM (inactive) | 13.3 µM (inactive) | 2.03 µM (inactive) | 11.6 µM (inactive) | 8.65 µM (inactive) | 3.69 | 7.05 µM (inactive) | 8.67 µM (inactive) | 0.668 µM (active) | 21.8 µM (inactive) | 1.77 µM (inactive) | 3.13 µM (inactive) | 2.42 µM (inactive) | 18.3 µM (inactive) | 18.9 µM (inactive) | 5.16 µM (inactive) | 5.42 µM (inactive) | 1.07 µM (active) | 4.24 µM (inactive) | 6.76 µM (inactive)
11 | COc1cccc2c1C(=O)c1c(O)c3c(c(O)c1C2=O)CC(O)(C(=O)CO)CC3OC1CC(N2CCOCC2C#N)C(O)C(C)O1 (stereo not given) | < 0.0001 µM (active) | < 0.0001 µM (active) | < 0.0001 µM (active) | < 0.0001 µM (active) | < 0.0001 µM (active) | < 0.0001 | < 0.0001 µM (active) | < 0.0001 µM (active) | < 0.0001 µM (active) | > 0.01 µM (active) | < 0.0001 µM (active) | < 0.0001 µM (active) | < 0.0001 µM (active) | < 0.0001 µM (active) | < 0.0001 µM (active) | < 0.0001 µM (active) | < 0.0001 µM (active) | < 0.0001 µM (active) | < 0.0001 µM (active) | < 0.0001 µM (active)
